{"source": "patent US20150104520A1", "about": "“Nanoparticle Formulations in Biomarker Detection” (priority 2013, published 2015)", "test_system": "patients with epithelial ovarian cancer", "assay": "Phase 2 randomized two-arm trial, IG-001 plus carboplatin vs paclitaxel plus carboplatin, 1st line", "from_the_text": "Phase II ovarian trial design: randomized, two-arm trial, primary advanced epithelial ovarian cancer consisting of 100 patients (50/each arm). […] The primary objective of the study was to determine the Composite Response by GCIG CA-125 Response and Response Evaluation Criteria in Solid Tumors (RECIST): based on non-inferiority study. […] The treatment regimen included 6 cycles of treatment with injection every three weeks and tumor screening after cycles 2, 4 and 6."}
{"compound": "CC(=O)O[C@H]1C(=O)[C@@]2(C)[C@H]([C@H](OC(=O)c3ccccc3)[C@]3(O)C[C@H](OC(=O)[C@H](O)[C@@H](NC(=O)c4ccccc4)c4ccccc4)C(C)=C1C3(C)C)[C@]1(OC(C)=O)CO[C@@H]1C[C@@H]2O", "note": "[paclitaxel]", "values": [{"measurement": "response rate", "setting": "each with carboplatin", "result": 77.8, "unit": "%"}]}
{"compound": "Paclitaxel + Carboplatin", "values": [{"measurement": "Response n (%)", "setting": "composite response by GCIG CA-125 and RECIST, IG-001 260 mg/m^2 or paclitaxel 175 mg/m^2, each + carboplatin 5 AUC, every 3 weeks, 6 cycles", "result": "37 (77.08) n (%)"}, {"measurement": "SAE Rate (%)", "setting": "patients with SAE", "result": "15 (31.25) n (%)"}, {"measurement": "UAE Rate (%)", "setting": "patients with UAE", "result": "0 (0.00) n (%)"}]}
